{"source": "patent US9242996B2", "about": "(Novartis AG, priority 2013, dated 2016)", "note": "pIC50: −log10 of the molar value."}
{"target": "activated ERK2 (Homo sapiens (Human), UniProt P28482)", "sequence (P28482 whole entry)": "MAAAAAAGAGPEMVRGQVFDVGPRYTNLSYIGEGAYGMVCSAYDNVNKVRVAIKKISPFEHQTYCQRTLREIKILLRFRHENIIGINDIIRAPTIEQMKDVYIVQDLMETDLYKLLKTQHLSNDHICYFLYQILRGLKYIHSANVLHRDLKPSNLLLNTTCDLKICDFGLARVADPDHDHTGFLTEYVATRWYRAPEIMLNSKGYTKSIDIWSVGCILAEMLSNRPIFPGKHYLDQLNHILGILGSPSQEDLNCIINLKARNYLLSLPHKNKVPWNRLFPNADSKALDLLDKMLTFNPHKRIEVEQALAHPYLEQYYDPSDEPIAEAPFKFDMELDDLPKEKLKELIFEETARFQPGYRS", "assay": "Activated ERK2 (20 pM) Kinase Assay (AlphaScreen, ERKtide phosphorylation)", "format": "biochemical", "details": "0.02 nM ERK2, 400 nM ERKtide peptide, 35 μM ATP, 30 min preincubation", "method": "Activated ERK2 (20 pM) Kinase Assay:\nThe assay was carried out in 20 mM HEPES [pH 7.5], 5 mM MgCl2, 1 mM DTT, 0.01% Tween-20, 0.05% BSA using 0.02 nM ERK2, 400 nM ERKtide peptide and 35 μM ATP (all concentrations are final in the reaction) in a total volume of 10.25 μL. […] Compound dilution series were prepared in 100% DMSO. ERK2 was preincubated with compounds for 30 minutes at ambient temperature. Reaction was initiated by addition of a substrate cocktail of ERKtide peptide and ATP and was allowed to proceed for 4 hours at ambient temperature. Reaction was terminated by addition of 10 μL of a 2× stop buffer consisting of 100 mM Tris-Cl [pH 7.5], 25 mM EDTA, 0.01% Tween 20, 20 μg/mL of AlphaScreen Protein A Acceptor Beads, 20 μg/mL of Streptavidin Donor Beads (PerkinElmer, Waltham, Mass.), and 1:1000 dilution phospho-EGF Receptor (Thr669) antibody (Cat #8808, Cell Signaling Technology, Danvers, Mass.). Terminated reactions were read, after overnight incubation in the dark, on an EnVision Multilabel Plate Reader (PerkinElmer, Waltham, Mass.), with excitation and emission wavelengths set to 680 nm and 570 nm, respectively. IC50 values were determined using a four-parameter fit."}
{"smiles": "Nc1ncc([C@H]2CCC[C@@H](O)C2)nc1-c1ccc(C(=O)N[C@H](CO)c2cccc(Cl)c2)c(F)c1", "note": "(single isomer, unassigned) [Example 198]", "pIC50": 9.65}
{"smiles": "Nc1ncc([C@H]2CCC[C@@H](O)C2)nc1-c1ccc(C(=O)N[C@H](CO)c2cccc(Cl)c2)c(F)c1", "note": "(single isomer, unassigned) [Example 199]", "pIC50": 9.52}
{"smiles": "NC[C@@H](NC(=O)c1ccc(-c2nc(C3CCCC(O)C3)cnc2N)cc1F)c1cccc(Cl)c1", "note": "(single isomer, unassigned) [Example 367]", "pIC50": 9.82}
{"smiles": "NC[C@@H](NC(=O)c1ccc(-c2nc(C3CCCC(O)C3)cnc2N)cc1F)c1cccc(Cl)c1", "note": "(single isomer, unassigned) [Example 368]", "pIC50": 10.05}
{"smiles": "NC[C@@H](NC(=O)c1ccc(-c2nc(C3CCCC(O)C3)cnc2N)cc1F)c1cccc(Cl)c1", "note": "(single isomer, unassigned) [Example 370]", "pIC50": 9.86}
{"smiles": "NC[C@@H](NC(=O)c1ccc(-c2nc(C3CCCC(O)C3)cnc2N)cc1F)c1cccc(Cl)c1", "note": "(single isomer, unassigned) [Example 372]", "pIC50": 10.40}
{"smiles": "Nc1ncc(C2CCCC(O)C2)nc1-c1ccc(C(=O)N[C@H](CO)c2cc(F)cc(Br)c2)c(F)c1", "note": "(single isomer, unassigned) [Example 384]", "pIC50": 10.21}
{"smiles": "Nc1ncc(C2CCCC(O)C2)nc1-c1ccc(C(=O)N[C@H](CO)c2cccc(Br)c2)c(F)c1", "note": "(single isomer, unassigned) [Example 385]", "pIC50": 9.91}
{"smiles": "Nc1ncc(C2CCCC(O)C2)nc1-c1ccc(C(=O)N[C@H](CO)c2cc(F)cc(Br)c2)c(F)c1", "note": "(single isomer, unassigned) [Example 386]", "pIC50": 10.48}
{"smiles": "Nc1ncc(C2CCCC(O)C2)nc1-c1ccc(C(=O)N[C@H](CO)c2cccc(Br)c2)c(F)c1", "note": "(single isomer, unassigned) [Example 389]", "pIC50": 10.51}
{"smiles": "Nc1ncc(C2CCCC(O)C2)nc1-c1ccc(C(=O)N[C@H](CO)c2cccc(Cl)c2)c(F)c1", "note": "(single isomer, unassigned) [Example 391]", "pIC50": 9.94}
{"smiles": "Nc1ncc(C2CCCC(O)C2)nc1-c1ccc(C(=O)N[C@H](CO)c2cccc(Cl)c2)c(F)c1", "note": "(single isomer, unassigned) [Example 393]", "pIC50": 10.12}
{"smiles": "CN1C[C@@H](NC(=O)c2ccc(-c3cc(-c4cnn(C)c4)cnc3N)cc2F)[C@H](c2ccc(F)c(Cl)c2)C1", "note": "(stereo in doubt) [Example 207, trans-4-(2-amino-5-(1-methyl-1H-pyrazol-4-yl)pyridin-3-yl)-N-((3S,4R)-4-(3-chloro-4-fluorophenyl)-1-methylpyrrolidin-3-yl)-2-fluorobenzamide]", "pIC50": 6.37}
{"smiles": "CN1C[C@H](NC(=O)c2ccc(-c3cc(-c4cnn(C)c4)cnc3N)cc2F)[C@@H](c2ccc(F)c(Cl)c2)C1", "note": "(stereo in doubt) [Example 208, trans-4-(2-amino-5-(1-methyl-1H-pyrazol-4-yl)pyridin-3-yl)-N-((3R,4S)-4-(3-chloro-4-fluorophenyl)-1-methylpyrrolidin-3-yl)-2-fluorobenzamide]", "pIC50": 5.13}
{"smiles": "CN1C[C@@H](NC(=O)c2ccc(-c3cc(-c4cnn(C)c4)cnc3N)cc2F)[C@H](c2ccc(Cl)c(F)c2)C1", "note": "(stereo in doubt) [Example 209, trans-4-(2-amino-5-(1-methyl-1H-pyrazol-4-yl)pyridin-3-yl)-N-((3S,4R)-4-(4-chloro-3-fluorophenyl)-1-methylpyrrolidin-3-yl)-2-fluorobenzamide]", "pIC50": 5.48}
{"smiles": "CN1C[C@H](NC(=O)c2ccc(-c3cc(-c4cnn(C)c4)cnc3N)cc2F)[C@@H](c2ccc(Cl)c(F)c2)C1", "note": "(stereo in doubt) [Example 210, trans-4-(2-amino-5-(1-methyl-1H-pyrazol-4-yl)pyridin-3-yl)-N-((3R,45)-4-(4-chloro-3-fluorophenyl)-1-methylpyrrolidin-3-yl)-2-fluorobenzamide]", "pIC50": 4.99}
{"smiles": "CO[C@H]1CC[C@H](c2cnc(N)c(-c3ccc(C(=O)N[C@H](CN)c4cccc(Cl)c4)c(F)c3)n2)CC1", "note": "[Example 18, N—((S)-2-amino-1-(3-chlorophenyl)ethyl)-4-(3-amino-6-((1r,4S)-4-methoxycyclohexyl)pyrazin-2-yl)-2-fluorobenzamide]", "pIC50": 10.40}
{"smiles": "C[C@]1(O)CC[C@@H](c2cnc(N)c(-c3ccc(C(=O)N[C@H](CO)c4cccc(Cl)c4)c(F)c3)n2)CC1", "note": "[Example 105, 4-(3-amino-6-((1s,4R)-4-hydroxy-4-methylcyclohexy)pyrazin-2-yl)-N-((S)-1-(3-chlorophenyl)-2-hydroxyethyl)-2-fluorobenzamide]", "pIC50": 8.59}
{"smiles": "C[C@]1(O)CC[C@H](c2cnc(N)c(-c3ccc(C(=O)N[C@H](CO)c4cccc(Cl)c4)c(F)c3)n2)CC1", "note": "[Example 106, 4-(3-amino-6-((1r,4S)-4-hydroxy-4-methylcyclohexyl)pyrazin-2-yl)-N-((S)-1-(3-chlorophenyl)-2-hydroxyethyl)-2-fluorobenzamide]", "pIC50": 8.89}
{"smiles": "Cc1c(-c2cnc(N)c(-c3ccc(C(=O)N[C@H](CO)c4cccc(Cl)c4)c(F)c3)c2)cnn1C", "note": "[Example 133, (S)-4-(2-amino-5-(1-deuterido-methyl, 5-methyl-1H-pyrazol-4-yl)pyridin-3-yl)-N-(1-(3-chlorophenyl)-2-hydroxyethyl)-2-fluorobenzamide]", "pIC50": 10.73}
{"smiles": "Nc1ncc(C2CCOCC2)nc1-c1ccc(C(=O)N[C@H](CO)c2ccccc2)cc1", "note": "[Example 135, (S)-4-(3-amino-6-(2,2,6,6-tetradeuterido-tetrahydro-2H-pyran-4-yl)pyrazin-2-yl)-N-(2-hydroxy-1-phenylethyl)benzamide]", "pIC50": 9.20}
{"smiles": "NC[C@@H](NC(=O)c1ccc(-c2nc(C3CCOCC3)cnc2N)cc1F)c1cccc(Cl)c1", "note": "[Example 174, (S)—N-(2-amino-1-(3-chlorophenyl)ethyl)-4-(3-amino-6-(tetrahydro-2H-pyran-4-yl)pyrazin-2-yl)-2-fluorobenzamide]", "pIC50": 10.68}
{"smiles": "CNC[C@@H](NC(=O)c1ccc(-c2nc(C3CCOCC3)cnc2N)cc1F)c1cccc(Cl)c1", "note": "[Example 176, (S)-4-(3-amino-6-(tetrahydro-2H-pyran-4-yl)pyrazin-2-yl)-N-(1-(3-chlorophenyl)-2-(methylamino)ethyl)-2-fluorobenzamide]", "pIC50": 10.55}
{"smiles": "Nc1ncc([C@H]2CC[C@H](O)CC2)nc1-c1ccc(C(=O)N[C@H](CO)c2cc(F)cc(CF)c2)c(F)c1", "note": "[Example 177, 4-(3-amino-6-((1r,4S)-4-hydroxycyclohexyl)pyrazin-2-yl)-2-fluoro-N—((S)-1-(3-fluoro-5-(fluoromethyl)phenyl)-2-hydroxyethyl)benzamide]", "pIC50": 10.64}
{"smiles": "Nc1ncc([C@H]2CC[C@@H](O)CC2)nc1-c1ccc(C(=O)N[C@H](CO)c2cc(F)cc(CF)c2)c(F)c1", "note": "[Example 178, 4-(3-amino-6-((1s,4R)-4-hydroxycyclohexyl)pyrazin-2-yl)-2-fluoro-N—((S)-1-(3-fluoro-5-(fluoromethyl)phenyl)-2-hydroxyethyl)benzamide]", "pIC50": 9.68}
{"smiles": "NC[C@@H](NC(=O)c1ccc(-c2nc(C3CCOCC3)cnc2N)cc1F)c1cc(F)cc(I)c1", "note": "[Example 179, (S)—N-(2-amino-1-(3-fluoro-5-iodophenyl)ethyl)-4-(3-amino-6-(tetrahydro-2H-pyran-4-yl)pyrazin-2-yl)-2-fluorobenzamide]", "pIC50": 11.21}
{"smiles": "NC[C@@H](NC(=O)c1ccc(-c2nc(C3CCOCC3)cnc2N)cc1F)c1cc(F)cc(Br)c1", "note": "[Example 180, (S)—N-(2-amino-1-(3-bromo-5-fluorophenyl)ethyl)-4-(3-amino-6-(tetrahydro-2H-pyran-4-yl)pyrazin-2-yl)-2-fluorobenzamide]", "pIC50": 11.17}
{"smiles": "NC[C@@H](NC(=O)c1ccc(-c2nc(C3CCOCC3)cnc2N)cc1F)c1cc(F)cc(Cl)c1", "note": "[Example 181, (S)—N-(2-amino-1-(3-chloro-5-fluorophenyl)ethyl)-4-(3-amino-6-(tetrahydro-2H-pyran-4-yl)pyrazin-2-yl)-2-fluorobenzamide]", "pIC50": 10.92}
{"smiles": "Nc1ncc([C@H]2CC[C@H](O)[C@@H](F)C2)nc1-c1ccc(C(=O)N[C@H](CO)c2cc(F)cc(Br)c2)c(F)c1", "note": "[Example 182, 4-(3-amino-6-((1S,3S,4S)-3-fluoro-4-hydroxycyclohexyl)pyrazin-2-yl)-N—((S)-1-(3-bromo-5-fluorophenyl)-2-hydroxyethyl)-2-fluorobenzamide]", "pIC50": 10.29}
{"smiles": "Nc1ncc([C@@H]2CC[C@@H](O)[C@H](F)C2)nc1-c1ccc(C(=O)N[C@H](CO)c2cc(F)cc(Br)c2)c(F)c1", "note": "[Example 183, 4-(3-amino-6-((1R,3R,4R)-3-fluoro-4-hydroxycyclohexyl)pyrazin-2-yl)-N—((S)-1-(3-bromo-5-fluorophenyl)-2-hydroxyethyl)-2-fluorobenzamide]", "pIC50": 10.24}
{"smiles": "CNC[C@@H](NC(=O)c1ccc(-c2nc([C@H]3CC[C@H](O)[C@@H](F)C3)cnc2N)cc1F)c1cc(F)cc(Br)c1", "note": "[Example 184, 4-(3-amino-6-((1S,3S,4S)-3-fluoro-4-hydroxycyclohexyl)pyrazin-2-yl)-N—((S)-1-(3-bromo-5-fluorophenyl)-2-(methylamino)ethyl)-2-fluorobenzamide]", "pIC50": 10.58}
{"smiles": "Nc1ncc([C@@H]2CC[C@H](O)[C@H](F)C2)nc1-c1ccc(C(=O)N[C@H](CO)c2cc(F)cc(Br)c2)c(F)c1", "note": "[Example 185, 4-(3-amino-6-((1R,3R,4S)-3-fluoro-4-hydroxycyclohexyl)pyrazin-2-yl)-N—((S)-1-(3-bromo-5-fluorophenyl)-2-hydroxyethyl)-2-fluorobenzamide]", "pIC50": 9.03}
